Laboratory results published in patent publication US6608109B2, “Composition comprising L-arginine as a muscle growth stimulant and use thereof” (priority 1991, dated 2003).

Legend:
[1] = Oral administration of M2 / L-arginine to test subjects: side-effects and tolerance; type: in vivo, human; details: L-arginine taken alone on an empty stomach
Excerpt: The subject was placed on L-Arginine M2 therapy.

[2] = Oral administration of M2 to test subjects: muscle mass and bodyfat; type: in vivo, human
Procedure: The above composition (identified as M2) was administered to test subjects. Those tests and the results are described in Example 2.

## N=C(N)NCCCC(N)C(=O)O [L-Arginine, 2-amino-5-guanidinovaleric acid]
[1]
  disadvantages (side effects) from ingestion: headache, diarrhea, flatulence, depletion of electrolytes
[2]; subject (1)
  Therapeutic dose for this subject: 15 grams L-Arginine per day
[2]; subject (2), totally empty stomach: 3+ hours
  dose required for Growth Hormone response out of pituitary gland: 15-20 grams
